Measurements taken from paper PMC12053642, “Oral PRI-002 treatment in patients with MCI or mild AD: a randomized, double-blind phase 1b trial” (Nature Communications, 2025).
Where “and” joins values, the source holds several entries; their conditions need not be identical. Identical values can stand only once. Entries after “also recorded” stand apart in the source; their conditions may differ. Square brackets hold non-standard residues; d marks the D form. Peptide text beside a SMILES is read from it.

Key:
[1] = PRI-002 concentration in CSF; type: in vivo, human
Description: (§1) In addition, also CSF levels of PRI-002 were determined. Due to non-specific binding of PRI-002 to vials used for sampling and storage the measured values, which are depicted in the Supplementary Table 7 are minimal values and the actual values will most probably be higher than reported here.
(11) Why were there no PK (drug concentration) assessments in CSF? Because BBB penetration in mice vs humans can diverge, matching CSF drug concentrations in human to those achieved in the animal pharmacology studies would be more compelling than matching […] drug concentrations. If there is a fundamental technical problem, it should be mentioned in the manuscript. […]
were unable to determine exact values. Due to non-specific binding of PRI-002 to vials used for sampling and storage of CSF, the measured values, which are depicted in the Table below are minimal values and will probably be higher than reported here.
Considering the three CSF samples in which the PRI-002 levels were above the LLOQ, approximately 15% of the mean predose plasma level of all patients at Day 28 (1.97±2.4 ng/ml) reached the CSF and […]
as §1, with “We will include the Table S5 in the supplement and the following sentence in the results part page 11, line 327-331: ”In” for “In”, “non -specific” for “non-specific”, “the” for “the Supplementary”, “S7” for “7”
Considering the three CSF samples in which the PRI -002 levels were above the LLOQ, approximately […]
Table S7 PRI-002 Level in CSF of […]

[2] = Pharmacokinetics of PRI-002 in plasma; details: 300 mg q.d. oral; for AUC(0-t): AUC 0-4 hours
Description: The effect on biomarker was assessed during baseline and after 28 days of medication. CSF collection and blood sampling were performed to determine PRI-002 concentration, which was conducted by Nuvisan (Neu-Ulm, Germany) and to exploratively estimate the effect of PRI-002 on the modulation of Aβ 1-40, Aβ 1-42, Aβ oligomers, total tau (t-tau), and phospho tau (p-tau). Aβ 1-40, Aβ 1-42, t-tau and p-tau181 were measured by immunoassay, using the Lumipulse platform (Fujirebio, Tokyo, Japan) and Aβ oligomers concentrations were determined using sFIDA technology[31]–[33] by attyloid GmbH (Düsseldorf, Germany). The effect of PRI-002 on cognitive and functional performance was measured by repetitively applying the CERAD+ battery and the Clinical Dementia Rating (CDR) at baseline, at Day 28 and additionally at the last visit (Day 56).
Secondary endpoints included the evaluation of pharmacokinetic characteristics of PRI-002 by determination of maximum plasma concentration (Cmax), time to reach maximum plasma concentration (Tmax), half-life (t1/2) calculated from PRI-002 plasma concentrations; and the determination of CSF concentrations of PRI-002.
4 Pharmacokinetic sampling X X
1 Heart rate and blood pressure: Day 1: at pre-dose and 2 hours±15 minutes; Day 14 and 28: at pre-
dose; 2 ECG Day 1: at pre-dose and 2 hours ± 15 minutes; Day 14 and 28: at pre-dose; 3 Safety
MRI was scheduled at screening and within three days after Day 28 and Day 56;4 Pharmacokinetic
sampling Day 1 and Day 28: at pre-dose, 30 minutes ± 15 minutes, 1 hour ± 15 minutes, 2
hours ± 15 minutes, and 4 hours ± 15 minutes.

[3] = system: patients with MCI or mild dementia due to AD; assay: Vital signs, physical examination, ECG and EEG; type: in vivo, human; details: 300 mg q.d. oral 28 d
Description: (§2) For safety assessment during baseline, at Day 14, 28, and 56, laboratory parameters and vital signs were measured, a physical exam was performed, and ECGs were recorded per protocol. A safety MRI was performed at screening, a second one within 3 days after day 28 and a third one at Day 56. During baseline and at day 28, EEG measurements were performed. In addition, nature, frequency, severity, and timing of AEs and SAEs were recorded at day 14, 28, and 56. Standardized AE reports were provided and analysed by the Data Safety and Monitoring Board (DSMB).

[4] = system: patients with MCI or mild dementia due to AD; assay: Safety MRI (ARIA); type: in vivo, human; details: MRI at screening, after Day 28 and Day 56, 300 mg q.d. oral 28 d, n=9
Description: as §2

[5] = system: patients with MCI or mild dementia due to AD; assay: Adverse events assessment (AE/SAE, MedDRA 23.0), phase 1b trial; details: 300 mg q.d. oral 28 d
Description: During treatment, the frequency of study visits at the trial site was 14 days (Day 1, day 14, Day 28). A last assessment took place at Day 56. At Day 7 and Day 21 additional phone contacts for safety assessments were performed.
For safety assessment during baseline, at Day 14, 28, and 56, laboratory parameters and vital signs were measured, a physical exam was performed, and ECGs were recorded per protocol. […] In addition, nature, frequency, severity, and timing of AEs and SAEs were recorded at day 14, 28, and 56. Standardized AE reports were provided and analysed by the Data Safety and Monitoring Board (DSMB).
Primary endpoints included nature, frequency, severity, and timing of AEs and SAEs; changes in routine laboratory values, ECG, MRI, EEG, and vital signs.

[6] = plasma, Day 1 (n=9), Max, MCI/mild AD patients
[7] = plasma, Day 1 (n=9), Mean ± SD, MCI/mild AD patients
[8] = plasma, Day 1 (n=9), Min, MCI/mild AD patients
[9] = plasma, Day 28 (n=8), Max, MCI/mild AD patients

With `CC(C)C[C@@H](NC(=O)[C@H](NC(=O)[C@H]1CCCN1)[C@H](C)O)C(=O)N[C@H](Cc1c[nH]cn1)C(=O)N[C@@H](C(=O)N[C@H](Cc1c[nH]cn1)C(=O)N[C@H](CC(N)=O)C(=O)N[C@H](CCCNC(=N)N)C(=O)N[C@H](CCCNC(=N)N)C(=O)N[C@H](CCCNC(=N)N)C(=O)N[C@H](CCCNC(=N)N)C(=O)N[C@H](CCCNC(=N)N)C(N)=O)[C@H](C)O` [PRI-002] (H-[dP][dT][dL][dH][dT][dH][dN][dR][dR][dR][dR][dR]-NH2; N-terminus and C-terminus assumed) the “PRI-002 Level in CSF of individual patients” value ([1]; Day 28, LLOQ 0.200, minimal values due to non-specific binding to vials, one line per patient, 300 mg q.d. oral) was < 0.200 ng PRI-002/ml (6×) and 0.203 ng PRI-002/ml and 0.377 ng PRI-002/ml and 0.304 ng PRI-002/ml, the “share of the mean predose plasma level that reached the CSF” value ([1]; three CSF samples above LLOQ versus predose plasma of all patients at Day 28) was “approximately 15%” and the “share of the mean predose plasma level that reached the CSF” value ([1]; three CSF samples above LLOQ versus predose plasma of patients 2, 3 and 4 at Day 28) was “approximately 8%”. The “PRI-002 plasma level, Mean” value ([2]; Day 1, 0 h, n=9, MCI/mild AD patients) was 0 ng/mL, the “AUC 0-4 hours, individual patients” value ([2]; Day 1, one line per patient) was 8.54 ng·h/mL and the “C max (PRI-002 plasma level Day 1), individual patients” value ([2]; Day 1, one line per patient) was 3.43 ng/mL and 1 ng/mL and 2.02 ng/mL and 3.03 ng/mL and 2.84 ng/mL and 10.2 ng/mL and 6.52 ng/mL and 10.4 ng/mL and 0.66 ng/mL and 0.70 ng/mL and 1.00 ng/mL. The “T max, individual patients” value ([2]; Day 1, one line per patient) was 0.50 h (3×) and 2.00 h and 4.00 h (3×) and 1.00 h (2×), the Css trough ([2]; Day 28 (n=8), Max, MCI/mild AD patients) was 7.45 and the “C max, individual patients” value ([2]; Day 28, one line per patient) was 1.76 ng/mL and 18.10 ng/mL and 9.37 ng/mL and 31.40 ng/mL and 2.42 ng/mL and 32.90 ng/mL and 2.24 ng/mL and 2.98 ng/mL. For the same molecule, the “T max, individual patients” value ([2]; Day 28, one line per patient) was 0.50 h (6×) and 4.00 h and 2.00 h, the “PRI-002 plasma level, individual patients” value ([2]; day 1, 2 h, one line per patient) was 0.878 and the “PRI-002 plasma level, individual patients” value ([2]; day 1, Pre-dose, one line per patient) was 0 ng/mL. It also gave an AUC(0-t) ([2]; human, plasma, po, 300 mg, plasma, Day 1 (n=9), Mean ± SD, MCI/mild AD patients) of 9.98 ± 7.46 ng·h/mL, an AUC(0-t) ([2]; human, plasma, po, 300 mg, plasma, Day 28 (n=8), Mean ± SD, MCI/mild AD patients) of 26.8 ± 23.8 ng·h/mL and an AUC(0-t) ([2]; human, plasma, po, 300 mg, plasma, Day 28 (n=8), Median, MCI/mild AD patients) of 20.4 ng·h/mL. The Cmax ([2]; human, plasma, po, 300 mg, Cmax, plasma, Day 1 (n=9), Mean ± SD, MCI/mild AD patients) was 4.46 ± 3.71 ng/mL, the Cmax ([2]; human, plasma, po, 300 mg, Cmax, plasma, Day 1 (n=9), Median, MCI/mild AD patients) was 3.03 ng/mL and the Cmax ([2]; human, plasma, po, 300 mg, Cmax, plasma, Day 28 (n=8), Mean ± SD, MCI/mild AD patients) was 12.6 ± 13.2 ng/mL. The Cmax ([2]; human, plasma, po, 300 mg, Cmax, plasma, Day 28 (n=8), Median, MCI/mild AD patients) was 6.2 ng/mL, the level at 0.5 h ([2]; human, plasma, po, 300 mg, PRI-002 plasma level, Mean, Day 1, 0.5 h, n=9, MCI/mild AD patients) was 3.1 ng/mL and the level at 1 h ([2]; human, plasma, po, 300 mg, PRI-002 plasma level, Mean, Day 1, 1 h, n=9, MCI/mild AD patients) was 3.5 ng/mL. For the same molecule, the level at 2 h ([2]; human, plasma, po, 300 mg, PRI-002 plasma level, Mean, Day 1, 2 h, n=9, MCI/mild AD patients) was 2.6 ng/mL, the level at 4 h ([2]; human, plasma, po, 300 mg, PRI-002 plasma level, Mean, Day 1, 4 h, n=9, MCI/mild AD patients) was 1.9 ng/mL and the level at 0 h ([2]; human, plasma, po, 300 mg, PRI-002 plasma level, Mean, Day 28, 0 h, n=8, MCI/mild AD patients) was 2 ng/mL. For the same molecule, the level at 0.5 h ([2]; human, plasma, po, 300 mg, PRI-002 plasma level, Mean, Day 28, 0.5 h, n=8, MCI/mild AD patients) was 12.5 ng/mL, the level at 1 h ([2]; human, plasma, po, 300 mg, PRI-002 plasma level, Mean, Day 28, 1 h, n=8, MCI/mild AD patients) was 8.4 ng/mL and the level at 2 h ([2]; human, plasma, po, 300 mg, PRI-002 plasma level, Mean, Day 28, 2 h, n=8, MCI/mild AD patients) was 6.1 ng/mL. The level at 4 h ([2]; human, plasma, po, 300 mg, PRI-002 plasma level, Mean, Day 28, 4 h, n=8, MCI/mild AD patients) was 4.6 ng/mL, the Tmax ([2]; human, plasma, po, 300 mg, Tmax, plasma, Day 1 (n=9), Mean ± SD, MCI/mild AD patients) was 1.94 ± 1.61 h and the Tmax ([2]; human, plasma, po, 300 mg, Tmax, plasma, Day 1 (n=9), Median, MCI/mild AD patients) was 1 h. The Tmax ([2]; human, plasma, po, 300 mg, Tmax, plasma, Day 28 (n=8), Mean ± SD, MCI/mild AD patients) was 1.1 ± 1.3 h, the “AUC 0-4 (Day28/Day1), mean systemic drug increase” value ([2]; n=8, Mean ± SD, MCI/mild AD patients) was 2.5 ± 1.3 fold and the “AUC 0-4 hours” value [2, 6] was 22.0 ng·h/mL. The Cmax [2, 6] was 10.4 ng/mL, the Tmax [2, 6] was 4.0 h and the “AUC 0-4 hours” value [2, 7] was 10 ± 7.5 ng·h/mL. For the same molecule, the Tmax [2, 7] was “about 2 h”, the “AUC 0-4 hours” value [2, 8] was 2.0 ng·h/mL and the Cmax [2, 8] was 0.7 ng/mL. For the same molecule, the “AUC 0-4 hours” value [2, 9] was 70.9 ng·h/mL, the Tmax [2, 9] was 4.0 h and the Tmax ([2]; plasma, Day 28 (n=8), Mean ± SD, MCI/mild AD patients) was about 1 h. The “AUC 0-4 hours” value ([2]; plasma, Day 28 (n=8), Min, MCI/mild AD patients) was 5.9 ng·h/mL, the “changes on vital signs, general physical examination, ECG and EEG” value [3] was “no significant changes” and the “MRI: ARIA, edematous changes” value [4] was “no edematous changes; also recorded: no ARIA”. For the same molecule, the tolerability ([5]; n=9) was “well tolerated”, the “SAEs or deaths during the trial” value ([5]; n=9, Day 1-56) was “No SAEs or deaths; also recorded: No SAEs” and the “AEs probably or possibly related to study treatment, number” value ([5]; Mild (grade 1), n=9) was 4.
